Results as given in paper PMC4890880 (ACS infectious diseases, 2016).
Read-outs that look alike come from different tables or passages of the source.

Legend:
[1] = test system: Plasmodium berghei (Pb-Luc) exoerythrocytic-stage parasites; details: for normalized signal at concentration 10 / normalized signal at concentration 0.000508053 / normalized signal at concentration 0.00152416 / normalized signal at concentration 0.00457247 / normalized signal at concentration 0.0137174 / normalized signal at concentration 0.0411523 / normalized signal at concentration 0.123457 / normalized signal at concentration 0.37037 / normalized signal at concentration 1.11111 / normalized signal at concentration 3.33333: fraction of control; for IC50: read-out: PbLuc_IC50; for IC50 / PbLuc_max_inhibition (%): sheet 2nd round; for PbLuc_max_inhibition (%): maximal inhibition in dose response
[2] = test system: HepG2-A16-CD81EGFP cells; details: sheet 2nd round; for IC50: read-out: Tox_IC50, HepG2 cytotoxicity; for Tox_max_inhibition (%): maximal inhibition in dose response
[3] = first series of dose-response columns
[4] = second series of dose-response columns
[5] = second series of columns (replicate)

## C[C@@H]1CN([C@@H](C)CO)C(=O)c2cccc(NC(=O)C3CC3)c2O[C@@H]1CN(C)C(=O)Nc1ccc(C(F)(F)F)cc1 [BRD-K19818397-001-01-8]
[1]; [3]
  normalized signal at concentration 10: 1.071
[1]; first series
  normalized signal at concentration 0.000508053: 1.034
  normalized signal at concentration 0.00152416: 0.8006
  normalized signal at concentration 0.00457247: 1.0648
  normalized signal at concentration 0.0137174: 1.106
  normalized signal at concentration 0.0411523: 1.032
  normalized signal at concentration 0.123457: 1.068
  normalized signal at concentration 0.37037: 0.8949
  normalized signal at concentration 1.11111: 0.9694
  normalized signal at concentration 3.33333: 1.103
[1]; Broad compounds, dose response
  IC50: > 10 µM
[1]; [4]
  normalized signal at concentration 10: 1.03
[1]; second series
  normalized signal at concentration 0.000508053: 1.064
  normalized signal at concentration 0.00152416: 1.02
  normalized signal at concentration 0.00457247: 1.098
  normalized signal at concentration 0.0137174: 0.9383
  normalized signal at concentration 0.0411523: 0.9903
  normalized signal at concentration 0.123457: 1.126
  normalized signal at concentration 0.37037: 1.0101
  normalized signal at concentration 1.11111: 1.172
  normalized signal at concentration 3.33333: 1.008
[1]
  PbLuc_max_inhibition (%): 20%
[2]
  IC50: > 10 µM
  Tox_max_inhibition (%): 16%

## O=S(=O)(c1cccs1)N1CCCCN2[C@H](CO)[C@H](c3ccc(/C=C/c4ccccc4)cc3)[C@H]2C1 [BRD-K20449903-001-01-6]
[1]; [3]
  normalized signal at concentration 10: 0.52
[1]; first series
  normalized signal at concentration 0.000508053: 1.07
  normalized signal at concentration 0.00152416: 1.07
  normalized signal at concentration 0.00457247: 0.84
  normalized signal at concentration 0.0137174: 1.09
  normalized signal at concentration 0.0411523: 0.93
  normalized signal at concentration 0.123457: 1.01
  normalized signal at concentration 0.37037: 1.01
  normalized signal at concentration 1.11111: 1.05
  normalized signal at concentration 3.33333: 1.18
[1]; Broad compounds, dose response
  IC50: > 10 µM
[1]; [4]
  normalized signal at concentration 10: 0.70
[1]; second series
  normalized signal at concentration 0.000508053: 0.94
  normalized signal at concentration 0.00152416: 1.05
  normalized signal at concentration 0.00457247: 0.96
  normalized signal at concentration 0.0137174: 1.06
  normalized signal at concentration 0.0411523: 1.19
  normalized signal at concentration 0.123457: 1.23
  normalized signal at concentration 0.37037: 0.91
  normalized signal at concentration 1.11111: 1.04
  normalized signal at concentration 3.33333: 1.04
[1]
  PbLuc_max_inhibition (%): 48%
[2]
  IC50: > 10 µM
  Tox_max_inhibition (%): 9%

## Cc1cccc(-c2ccc(C3[C@@H]4CN(C(=O)CN(C)C)C[C@H]3N4)cc2)c1 (stereo partly drawn) [BRD-K25161260-019-01-1]
[1]; [3]
  normalized signal at concentration 10: 0.87
[1]; first series
  normalized signal at concentration 0.000508053: 0.66
  normalized signal at concentration 0.00152416: 0.79
  normalized signal at concentration 0.00457247: 0.92
  normalized signal at concentration 0.0137174: 0.97
  normalized signal at concentration 0.0411523: 0.91
  normalized signal at concentration 0.123457: 0.95
  normalized signal at concentration 0.37037: 0.78
  normalized signal at concentration 1.11111: 0.60
  normalized signal at concentration 3.33333: 0.90
[1]; Broad compounds, dose response
  IC50: > 10 µM
[1]; [4]
  normalized signal at concentration 10: 0.87
[1]; second series
  normalized signal at concentration 0.000508053: 0.94
  normalized signal at concentration 0.00152416: 0.94
  normalized signal at concentration 0.00457247: 1.11
  normalized signal at concentration 0.0137174: 1.12
  normalized signal at concentration 0.0411523: 1.00
  normalized signal at concentration 0.123457: 1.11
  normalized signal at concentration 0.37037: 0.98
  normalized signal at concentration 1.11111: 0.83
  normalized signal at concentration 3.33333: 0.97
[1]
  PbLuc_max_inhibition (%): 40%
[2]
  IC50: > 10 µM
  Tox_max_inhibition (%): 5.5%

## C[C@@H]1CCCCO[C@H](CN(C)S(=O)(=O)c2ccc(F)cc2)[C@@H](C)CN([C@@H](C)CO)C(=O)c2cc(N(C)C)ccc2O1 [BRD-K27035180-001-01-0]
[1]; first series of columns
  normalized signal at concentration 0.000508053: 0.9801
  normalized signal at concentration 0.00152416: 1.117
  normalized signal at concentration 0.00457247: 0.8737
  normalized signal at concentration 0.0137174: 0.9285
  normalized signal at concentration 0.0411523: 1.068
  normalized signal at concentration 0.123457: 0.9867
  normalized signal at concentration 0.37037: 0.8491
  normalized signal at concentration 1.11111: 1.048
  normalized signal at concentration 3.33333: 0.9262
  normalized signal at concentration 10: 0.8261
[1]; Pb-Luc exoerythrocytic stage, 10-point dose response, top concentration 10
  IC50: > 10 µM
[1]; [5]
  normalized signal at concentration 0.000508053: 0.9613
  normalized signal at concentration 0.00152416: 1.064
  normalized signal at concentration 0.00457247: 0.9935
  normalized signal at concentration 0.0137174: 0.8637
  normalized signal at concentration 0.0411523: 1.045
  normalized signal at concentration 0.123457: 0.8684
  normalized signal at concentration 0.37037: 1.143
  normalized signal at concentration 1.11111: 0.8369
  normalized signal at concentration 3.33333: 1.121
  normalized signal at concentration 10: 0.5603
[1]
  PbLuc_max_inhibition (%): 44%
[2]
  IC50: > 10 µM
  Tox_max_inhibition (%): 10%

## CN(C)C(=O)c1ccc(-c2ccc([C@@H]3[C@H]4CN(C(=O)CC5CC5)CC(=O)N4[C@H]3CO)cc2)cc1 [BRD-K27481961-001-01-1]
[1]; [3]
  normalized signal at concentration 10: 1.04
[1]; first series
  normalized signal at concentration 0.000508053: 0.88
  normalized signal at concentration 0.00152416: 0.98
  normalized signal at concentration 0.00457247: 1.01
  normalized signal at concentration 0.0137174: 0.77
  normalized signal at concentration 0.0411523: 0.91
  normalized signal at concentration 0.123457: 0.95
  normalized signal at concentration 0.37037: 0.98
  normalized signal at concentration 1.11111: 1.00
  normalized signal at concentration 3.33333: 0.94
[1]; Broad compounds, dose response
  IC50: > 10 µM
[1]; [4]
  normalized signal at concentration 10: 0.89
[1]; second series
  normalized signal at concentration 0.000508053: 1.05
  normalized signal at concentration 0.00152416: 1.04
  normalized signal at concentration 0.00457247: 0.89
  normalized signal at concentration 0.0137174: 0.89
  normalized signal at concentration 0.0411523: 0.96
  normalized signal at concentration 0.123457: 1.12
  normalized signal at concentration 0.37037: 1.12
  normalized signal at concentration 1.11111: 0.98
  normalized signal at concentration 3.33333: 1.20
[1]
  PbLuc_max_inhibition (%): 23%
[2]
  IC50: > 10 µM
  Tox_max_inhibition (%): 6%

## CN(C)c1ccc2c(c1)[C@@H]1C[C@@H](CC(=O)NC3CCCCC3)O[C@@H](CO)[C@@H]1O2 [BRD-K29474997-001-01-2]
[1]; [3]
  normalized signal at concentration 10: 1.33
[1]; first series
  normalized signal at concentration 0.000508053: 1.31
  normalized signal at concentration 0.00152416: 1.11
  normalized signal at concentration 0.00457247: 1.19
  normalized signal at concentration 0.0137174: 0.90
  normalized signal at concentration 0.0411523: 0.87
  normalized signal at concentration 0.123457: 0.89
  normalized signal at concentration 0.37037: 0.92
  normalized signal at concentration 1.11111: 1.25
  normalized signal at concentration 3.33333: 0.99
[1]; Broad compounds, dose response
  IC50: > 10 µM
[1]; [4]
  normalized signal at concentration 10: 1.28
[1]; second series
  normalized signal at concentration 0.000508053: 1.12
  normalized signal at concentration 0.00152416: 1.06
  normalized signal at concentration 0.00457247: 1.06
  normalized signal at concentration 0.0137174: 1.04
  normalized signal at concentration 0.0411523: 1.09
  normalized signal at concentration 0.123457: 0.92
  normalized signal at concentration 0.37037: 0.91
  normalized signal at concentration 1.11111: 1.04
  normalized signal at concentration 3.33333: 1.16
[1]
  PbLuc_max_inhibition (%): 13%
[2]
  IC50: > 10 µM
  Tox_max_inhibition (%): 12%

## COc1ccc(S(=O)(=O)N(C)C[C@H]2Oc3ccc(NC(=O)Cc4cn(C)c5ccccc45)cc3C(=O)N([C@H](C)CO)C[C@@H]2C)cc1 [BRD-K30240821-001-02-4]
[1]; [3]
  normalized signal at concentration 10: 0.7772
[1]; first series
  normalized signal at concentration 0.000508053: 0.8923
  normalized signal at concentration 0.00152416: 0.848
  normalized signal at concentration 0.00457247: 0.7066
  normalized signal at concentration 0.0137174: 0.8032
  normalized signal at concentration 0.0411523: 0.8311
  normalized signal at concentration 0.123457: 1.098
  normalized signal at concentration 0.37037: 0.9739
  normalized signal at concentration 1.11111: 0.9836
  normalized signal at concentration 3.33333: 0.9041
[1]; Broad compounds, dose response
  IC50: > 10 µM
[1]; [4]
  normalized signal at concentration 10: 0.9286
[1]; second series
  normalized signal at concentration 0.000508053: 0.993
  normalized signal at concentration 0.00152416: 0.893
  normalized signal at concentration 0.00457247: 0.9938
  normalized signal at concentration 0.0137174: 0.8741
  normalized signal at concentration 0.0411523: 1.056
  normalized signal at concentration 0.123457: 0.8643
  normalized signal at concentration 0.37037: 1.021
  normalized signal at concentration 1.11111: 1.07
  normalized signal at concentration 3.33333: 1.082
[1]
  PbLuc_max_inhibition (%): 29%
[2]
  IC50: > 10 µM
  Tox_max_inhibition (%): 8.48%
